Assay results published in article PMC8344021, “Discovery of Small Molecule Bak Activator for Lung Cancer Therapy” (Theranostics, 2021).

Test system: A549-P, A549-IRR, H358-P, H358-IRR, H460-P and H460-IRR cells
Experiment: Colony formation assay in parental and radioresistant cells
Assay type: cell-based, human
Conditions: 0.5 µM
Description: To further investigate whether Bak contributes to radioresistance, we established three lung cancer cell lines with ionizing radiation resistance (i.e. A549-IRR, H358-IRR and H460-IRR) as described, [52], [53]. […] A549-P, […] and H460-P cells remained sensitive to IR, but A549-IRR, H358-IRR and H460-IRR became insensitive to IR. […] To further test this in vivo, NSCLC xenografts derived from A549-P and A549-IRR cell lines were treated with IR (2Gy/exposure, every other day for total of 5 times) or BKA-073 (15 mg/kg/d) for 4 weeks. We observed that lung cancer xenografts derived from A549-IRR cells were resistant to IR treatment whereas xenografts derived from A549-P were sensitive to IR treatment (Figure S7C).
Figure S7. BKA-073 overcomes radioresistance of lung cancer in vitro and in vivo. (A) Expression levels of Bak in A549-P versus A549-IRR cells, H358-P versus H358 -IRR cells or H460-P versus H460-IRR cells were analyzed by Western blot. (B) A549-P, A549-IRR, H358-P, H358-IRR, H460-P and H460-IRR cells were treated with IR (5Gy), BKA -073 (0.5 µM), followed by colony formation assay. Data represent the mean ± SD, n = 3 per group. ***P < 0.001, ns: not significant, by 2-tailed t test. […]
Tumor volume was measured once every 2 days. After treatment, mice were sacrificed and tumors were removed and analyzed. […]

With `COc1ccc2nc3ccccc3c(NCCNCC(C)O)c2c1` (centres unmarked) [BKA-073] the “sensitivity (colony formation)” value (parental cell lines (A549-P, H358-P, H460-P)) was “sensitive” and the “sensitivity (colony formation)” value (radioresistant cell lines (A549-IRR, H358-IRR, H460-IRR)) was “sensitive”.
